Target: T1, Recombinant purified human JAK3 (Homo sapiens, UniProt P52333)
T1 construct: purchased Promega V9441
T1 sequence (P52333 1-1124): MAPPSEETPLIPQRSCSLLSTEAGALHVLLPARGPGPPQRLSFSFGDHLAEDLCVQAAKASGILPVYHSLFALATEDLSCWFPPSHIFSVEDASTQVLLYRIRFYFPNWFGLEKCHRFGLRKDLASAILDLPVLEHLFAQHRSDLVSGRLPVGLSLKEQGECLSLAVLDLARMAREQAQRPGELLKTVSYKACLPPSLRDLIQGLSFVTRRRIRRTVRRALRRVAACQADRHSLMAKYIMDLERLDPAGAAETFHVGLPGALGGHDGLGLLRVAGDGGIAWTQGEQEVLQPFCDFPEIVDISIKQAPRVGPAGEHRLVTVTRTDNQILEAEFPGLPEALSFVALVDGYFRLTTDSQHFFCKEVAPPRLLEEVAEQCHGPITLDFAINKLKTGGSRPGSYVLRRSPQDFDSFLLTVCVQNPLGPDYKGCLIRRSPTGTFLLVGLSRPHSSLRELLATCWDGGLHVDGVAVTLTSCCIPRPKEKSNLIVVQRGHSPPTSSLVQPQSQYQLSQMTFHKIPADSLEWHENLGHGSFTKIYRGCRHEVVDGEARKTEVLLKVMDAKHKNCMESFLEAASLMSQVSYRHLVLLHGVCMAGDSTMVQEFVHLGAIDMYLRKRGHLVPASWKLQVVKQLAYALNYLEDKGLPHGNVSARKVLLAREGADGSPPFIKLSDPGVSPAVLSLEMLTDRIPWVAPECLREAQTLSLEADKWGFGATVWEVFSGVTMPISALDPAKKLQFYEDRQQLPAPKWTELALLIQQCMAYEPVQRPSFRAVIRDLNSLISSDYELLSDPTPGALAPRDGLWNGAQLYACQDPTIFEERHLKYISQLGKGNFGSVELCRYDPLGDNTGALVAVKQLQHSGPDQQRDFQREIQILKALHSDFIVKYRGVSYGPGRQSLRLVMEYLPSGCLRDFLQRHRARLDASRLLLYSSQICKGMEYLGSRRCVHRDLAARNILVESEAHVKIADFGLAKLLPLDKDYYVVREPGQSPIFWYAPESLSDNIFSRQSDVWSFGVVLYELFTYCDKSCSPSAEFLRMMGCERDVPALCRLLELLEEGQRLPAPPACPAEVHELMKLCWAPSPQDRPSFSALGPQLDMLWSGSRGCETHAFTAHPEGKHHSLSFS
Experiment: JAK3 inhibitory activity test (ADP-Glo kinase assay)
Type: biochemical
Details: ATP 5 uM, 1 hour incubation at 30° C.
Description: The inhibitory activities against JAK3 were measured for the compounds prepared in the above Examples through in vitro analysis on the ADP Glow (Glo) platform.
Specifically, the inhibitory activities against JAK3 were measured using a JAK3 kinase assay kit (Promega, V9441), which was purchased from Promega. Recombinant purified human JAK3 was diluted with 1× kinase reaction buffer (JAK3: 40 mM Tris-CI, pH 7.5, 20 mM MgCl2, 0.1 mg/mL BSA and 50 uM OTT and added to a 96 well plate (JAK3: final concentration of 4 ng per reaction). The compounds prepared in the previous Examples were treated so as to be finally a 1% DMSO aqueous solution, and a substrate cocktail containing ATP (JAK3: final concentration of 5 uM) and 0.2 ug/ul of Poly(Glu4, Tyri) peptide (JAK3 final concentration) in the total 25 uL reactants was added to a 96-well plate to initiate enzymatic reaction. After incubation (30° C.) for 1 hour, equivalent volume (25 uL per reaction) of ADP Glo was added and incubated (30° C.) for 40 minutes at room temperature. Then, a kinase detection reagent (50 uL per reaction) was added and incubated (30° C.) for 30 minutes at room temperature. The kinase activity was measured by chemiluminescence according to the instructions of ADP Glo kinase assay kit, and the inhibitory activity of the compounds according to the present invention was calculated. For the analysis of the results of each compound, Microsoft Excel was used, and IC50 values were calculated by SigmaPlot software.

Row | Structure (SMILES) | IC50 [nM]
1 | C=CC(=O)Nc1cccc(Oc2cccc3nc(Nc4ccc(N5CCOCC5)nc4)nn23)c1 [Example 21, N-(3-(2-(6-morpholinopyridin-3-ylamino)-[1,2,4]triazolo[1,5-a]pyridin-5-yloxy)phenyl)acrylamide] | 0.7
2 | C=CC(=O)Nc1ccc(F)c(Oc2cccc3nc(Nc4cnn(C(F)F)c4)nn23)c1 [Example 31, N-(3-(2-(1-(difluoromethyl)-1H-pyrazol-4-ylamino)-[1,2,4]triazolo[1,5-a]pyridin-5-yloxy)-4-fluorophenyl)acrylamide] | 18.2
3 | C=CC(=O)Nc1ccc(F)c(Oc2cccc3nc(Nc4ccc(N5CCOCC5)cc4)nn23)c1 [Example 27, N-(4-fluoro-3-(2-(4-morpholinophenylamino)-[1,2,4]triazolo[1,5-a]pyridin-5-yloxy)phenyl)acrylamide] | 1.3
4 | C=CC(=O)Nc1cccc(Oc2cccc3nc(Nc4cccc(Oc5ccccc5)c4)nn23)c1 [Example 5, N-(3-(2-(3-phenoxyphenylamino)-[1,2,4]triazolo[1,5-a]pyridin-5-yloxy)phenyl)acrylamide] | 35.8

— patent publication US20220389010A1, “Novel Triazolopyridine Derivatives and Pharmaceutical Composition Comprising Same” (Daewoong Pharmaceutical Co., Ltd., priority 2019, published 2022)
